A short description of the data set: Photostability, illumination with high intensity mercury lamp. Type of data set: physicochemical. The conditions noted are these: methanol solution; dissolved in methanol (4 mmol/l), mercury lamp 200-600 nm; read-out: Half-life of decomposition during illumination.

A word on the half-life: it is the time in which the quantity being followed falls by half. With `COc1cc(/C=C/C(=O)CC(=O)/C=C/c2ccc(O)c(OC)c2)ccc1O` [curcumin], the half-life at 4 mmol/l was 65 min.

The values are drawn from patent US8568815B2, “Soluble complexes of curcumin” (Novobion Oy, priority 2008, dated 2013).
